Entries after “also recorded” stand apart in the source; their conditions may differ.
Tests used:
[1] = test system: nicotinic receptors in the brain; details: cited from earlier work
[2] = test system: P. gingivalis-stimulated human monocytes; test: TNF release by P. gingivalis-stimulated human monocytes (ELISA); assay type: cell-based; details: for TNF release compared to cells stimulated with P. gingivalis alone: 2 h pre-treatment with nicotine or cotinine, P. gingivalis MOI=10 for 20 h, dose-dependent
[3] = test system: striatal dopamine release; details: cited from earlier work
[4] = cited from earlier work; for Terminal elimination half-life: in vivo
[5] = test system: primary monocytes; test: Viability of primary monocytes
Method: Monocytes were pre-treated for 2 h with nicotine (triangles) or cotinine (squares) then stimulated with P. gingivalis (MOI=10) for 20 h. Cell-free supernatants were harvested by centrifugation and levels of TNF-α were determined by ELISA.
(A-E) Control monocytes (closed squares) and monocytes pre-treated with cotinine (100 ng ml^−1) for 2 hours (open squares) were stimulated with P. gingivalis 33277 LPS (0-10^5 ng ml^−1) for 24 hours. Cell-free supernatants were harvested by centrifugation and levels of pro-inflammatory cytokines (A-E) and IL-10 (E) were determined by ELISA. Data are the arithmetic mean±s.d. of 3 experiments.

[6] = test system: PI3K; test: PI3K activation in monocytes measured as PIP3 (competitive ELISA); assay type: cell-based, human; details: LPS 1 μg ml^−1 60 minutes
[7] = test system: LPS-stimulated monocytes; test: IL-10 release by LPS-stimulated human monocytes (ELISA); assay type: cell-based
[8] = test system: THP-1 or THP-1 Blue cells; test: Viability of THP-1 or THP-1 Blue cells; assay type: cell-based; details: cotinine 100 ng ml^−1
[9] = test system: Akt (Ser473); test: Phosphorylated Akt western blot in monocytes; assay type: cell-based, human; details: P. gingivalis stimulated monocytes; PI3K-dependent
Method: (§1) Antibodies were purchased from Cell Signaling, Beverly, Mass. Blots were visualized by enhanced chemiluminescence. The importance of the PI3K-dependent anti-inflammatory pathway in cotinine-induced inflammatory suppression was also established by pharmacological inhibition of PI3K and GSK-3β using the PI3K antagonists LY294002 (25 μM; Calbiochem®, San Diego, Calif.) and wortmannin (100 nM, Calbiochem); and the GSK-3β inhibitor SB216763 (6 μM; Sigma). Activated PI3K produces PIP3 that, in turn, activates downstream signaling components of the PI3K pathway. Therefore, cells were also analyzed for cotinine-induced PI3K activation by, assaying the ability of PI3K to produce PIP3. Levels of PIP3 were determined by ELISA using a competitive inhibition assay (Echelon Bioscience, Salt Lake City, Utah). The specific PI3K inhibitor LY294002 was used at 25 μM and served as a control to block PI3K activity.

[10] = test system: THP-1 cells; test: IL-10 release by LPS-stimulated THP-1 cells (ELISA); assay type: cell-based
Method: (§2) FIG. 11. The anti-inflammatory potential of cotinine is a GSK-3β-dependent but NF-κB-independent phenomenon. THP-1 Blue cells are stably transfected with a reporter plasmid expressing secreted embryonic alkaline phosphatase (SEAP) gene under the control of a NF-κB-inducible promoter. […] Cell-free supernatants were harvested by centrifugation and relative expression levels of SEAP (reflecting NF-κB; THP-1 Blue; circles) and IL-10 (THP-1; bars) were determined by spectrophotometric analysis of SEAP activity and ELISA, respectively.
(§3) THP-1 Blue cells are monocyte-like cells that have been stably transfected with a reporter plasmid expressing secreted embryonic alkaline phosphatase (SEAP) gene under the control of a NF-κB-inducible promoter. […] Cell-free supernatants were harvested by centrifugation and relative expression levels of NF-κB and IL-10 were determined by spectrophotometric analysis of SEAP activity and ELISA, respectively.
Levels of phosphorylated Akt and phoshorylated GSK-3β following cotinine (0-100 ng ml^−1) and/or E. coli LPS (1 μg ml^−1) treatment were determined by western blot using whole-cell lysates (20 μg) with probing for Akt using a phospho-specific Akt (Ser473) antibody; probing for GSK-3β using a phospho-specific GSK-3β (Ser9; denoted pGSK-3β) antibody; with the blots stripped and re-probed for total p38 to ensure equivalent loading. Antibodies were purchased from Cell Signaling, Beverly, Mass. Blots were visualized by enhanced chemiluminescence. The importance of the PI3K-dependent anti-inflammatory pathway in cotinine-induced inflammatory suppression was also established by pharmacological inhibition of PI3K and GSK-3β using the PI3K antagonists LY294002 (25 μM; Calbiochem®, San Diego, Calif.) and wortmannin (100 nM, Calbiochem); and the GSK-3β inhibitor SB216763 (6 μM; Sigma). […] Therefore, cells were also analyzed for cotinine-induced PI3K activation by, assaying the ability of PI3K to produce PIP3. Levels of PIP3 were determined by ELISA using a competitive inhibition assay (Echelon Bioscience, Salt Lake City, Utah). […]

[11] = test system: LPS-stimulated monocytes; test: Pro-inflammatory cytokine release by LPS-stimulated human monocytes (ELISA); assay type: cell-based
Method: FIGS. 3A-3E. […] Monocytes were pre-treated with cotinine (1000 ng/ml) for 2 hours then stimulated with purified LPS (0 to 1×10^4 ng/ml) for 24 hours.
FIGS. 6A-6E. […] Cells were pre-treated with nicotine or cotinine (100 and 1000 ng/ml, respectively) for 2 hours then stimulated with purified LPS (0 to 1×10^4 ng/ml) for 24 hours. […] FIG. 6A provides data for IFNγ; FIG. 6B provides data for IL-1β, FIG. 6C provides data for IL-6, FIG. 6D provides data for TNF-α, and FIG. 6E provides data for IL-12/IL-23 p40.
Cotinine inhibited the production and release of multiple pro-inflammatory cytokines by monocytes stimulated with Toll-like receptor (TLR)-agonists in a dose-dependent manner. Cells were pre-treated with cotinine for 2 hours then stimulated with a TLR-agonist (purified LPS, 0 to 1×10^4 ng ml^−1) for 24 hours.
Inflammatory response of cotinine-exposed monocytes to P. gingivalis and LPS: In an initial series of experiments, we determined how physiological doses of nicotine and cotinine influenced levels of TNF secreted by monocytes stimulated with LPS. Human monocytes were pre-treated for 90 minutes with nicotine (1 to 1,000 ng/ml; Sigma-Aldrich, Inc.) or cotinine (1 to 10,000 ng/ml; Sigma-Aldrich, Inc.), then stimulated with purified E. coli K-12 LPS (0 to 10 μg/ml; InVivoGen™, San Diego, Calif.). TNF concentrations in 24 hr supernatants were measured by ELISA (eBioscience, San Diego, Calif.). Subsequently, the concentrations of multiple cytokines in 24 hr supernatants of cotinine pre-incubated (1000 ng/ml) LPS-([…]) stimulated monocytes were measured by ELISA (IFN-γ (PBL Biomed Labs, Piscataway, N.J.), IL-1β, IL-6, TNF, IL-10 (all eBioscience), and IL-12/IL-23 p40 (R&D Systems, Minneapolis, Minn.).
Primary monocytes were pre-treated with nicotine (0-100 ng ml^−1) or cotinine (0-1000 ng ml^−1) then stimulated with the Gram negative periodontal pathogen P. gingivalis (MOI=0-10); purified E. coli K-12 LPS (0-1 μml^−1; InVivoGen™, San Diego, Calif.); or purified P. gingivalis 33277 LPS for 20 h. Primary monocytes were also pre-treated with cotinine (100 ng ml^−1) then stimulated with increasing doses of LPS for 20 h. Cell-free supernatants were harvested by centrifugation and cytokine levels (TNF, IL-6, IL-10, IL-12/IL-23 p40, as appropriate) were determined by ELISA (eBioscience, San Diego, Calif. or R&D Systems, Minneapolis, Minn.).

[12] = cited from earlier work
[13] = test system: neutrophils; details: cited from earlier work
[14] = test system: GSK-3β (Ser9); test: Phosphorylated GSK-3β western blot in monocytes; assay type: cell-based, human; details: P. gingivalis stimulated monocytes
Method: as §1

[15] = test system: NF-κB; test: NF-κB-inducible SEAP reporter in LPS-stimulated THP-1 Blue cells; assay type: cell-based; details: cotinine 100 ng ml^−1 2 h, LPS 1 μg ml^−1 24 h
Method: as §2, §3

[16] = cotinine 100 ng ml^−1 2 h, P. gingivalis 33277 LPS 0-10^5 ng ml^−1 24 h
[17] = cotinine 1000 ng/ml 2 h, LPS 0 to 1×10^4 ng/ml 24 h

CN1C(=O)CC[C@H]1c1cccnc1 [cotinine, (S)-1-methyl-5-(3-pyridinyl)-2-Pyrrolidinone]
Upregulation of nicotinic receptor expression in the brain [1]: does not appear to upregulate | TNF release compared to cells stimulated with P. gingivalis alone [2]: equally as effective as nicotine; also recorded: produce significantly less TNF-α | Striatal dopamine release [3]: evokes striatal dopamine release | Systemic concentration relative to nicotine ([4]; humans): ten-fold | Terminal elimination half-life [4]: sixteen | Systemic levels in second-hand smokers ([4]; second-hand smokers): 1 to 15 ng/mL | Mean concentration in smokers [4]: 200 to 500 ng/mL | Viability of primary monocytes compared to P. gingivalis alone ([5]; cotinine 0 to 10^5 ng ml^−1): no statistically significant effect | Viability of primary monocytes compared to LPS alone ([5]; cotinine 100 ng ml^−1): no statistically significant effect | PIP3 levels (PI3K activation) [6]: potently augments the activation of PI3K; also recorded: increased PIP3 levels | IL-10 release ([7]; cotinine 0 to 10,000 ng/ml 2 h, purified LPS 24 h): increased the production and release; also recorded: enhanced production; also recorded: increases the release | IL-10 production ([7]; cotinine 100 ng ml^−1 2 h, P. gingivalis 33277 LPS 24 h): enhancing production; also recorded: augments IL-10 production | Viability of THP-1 or THP-1 Blue cells compared to LPS alone [8]: no statistically significant effect | Levels of phosphorylated (active) Akt [9]: enhances | IL-10 production ([10]; cotinine pre-treatment 2 h, LPS 1 μg ml^−1 24 h): augment IL-10 production | IL-1β release [11, 16]: dramatically suppresses | IL-6 release [11, 16]: dramatically suppresses | IL-12/IL-23 p40 subunit release [11, 16]: dramatically suppresses | TNF-α release [11, 16]: dramatically suppresses | IFN-γ production [11, 17]: suppressed | IL-1β production [11, 17]: suppressed | IL-6 production [11, 17]: suppressed | IL-12/IL-23 p40 production [11, 17]: suppressed | TNF-α production [11, 17]: suppressed | Vasoactivity (heart rate, blood pressure, skin temperature) ([12]; cotinine infusions in humans): may not be vasoactive | Addictiveness ([12]; in vivo): non-addictive | Safety of administration to humans ([12]; levels as high as 10 times that attained from cigarette smoking): safe | Release of free radicals from neutrophils [13]: suppresses the release of free radicals from neutrophils | Levels of phosphorylated (inactive) GSK3-β [14]: augments | LPS-induced NF-κB (SEAP activity) [15]: not affected; also recorded: not influenced

Cn1cc(C2=C(c3ccc(Cl)cc3Cl)C(=O)NC2=O)c2ccccc21 [SB216763]
IL-10 production ([10]; GSK-3β inhibitor SB216763 6 μM, LPS): enhances IL-10 production in response to LPS | Potency as inducer of IL-10 relative to cotinine ([10]; SB216763 versus cotinine 10 ng ml^−1, p<0.05): significantly less potent inducer of IL-10 than cotinine; also recorded: less potent than even low doses of cotinine

CNC1(C)C2CCC(C2)C1(C)C (centres unmarked) [mecamylamine]
Effect of non-selective nAChR antagonist on cotinine-induced inflammatory suppression ([2]; mecamylamine 10 μM pre-incubation): nAChR-dependent phenomenon

CN1CCC[C@H]1c1cccnc1 [nicotine, (S)-3-(1-methyl-2-pyrrolidinyl)pyridine, reference compound]
TNF release compared to cells stimulated with P. gingivalis alone [2]: inhibits the release of TNF; also recorded: produce significantly less TNF-α | Terminal elimination half-life [4]: two | Fraction of nicotine converted to cotinine ([4]; metabolized by the liver): up to 80% | Mean concentration in smokers [4]: ~30 ng/mL | PIP3 levels (PI3K activation) [6]: increased PIP3 levels
